{"source": "patent US12472204B2", "about": "“Compound of element acid, which is in allotropic form, which enters into cellular interaction in some bone diseases” (CELAL BAYAR UNIVERSITESI DIGER MERKEZLER MUDURLUGU, priority 2020, dated 2025)", "key": {"[1]": {"tested_on": "osteoblast cells where hydroxy-urea is applied (in-vitro brittle bone disease model)", "protocol": "(§1) The 2nd group has been determined as the boric acid group by adding 0.1 mM boric acid into the osteoblast culture medium. The 3rd group is the ageing group and has been cultured with 1 mM hydroxy-urea to the osteoblast culture medium and has been determined as the experimental brittle bone disease group. The 4th group has been determined as the group where boric acid is applied to the osteogenesis imperfecta model by applying […] boric acid to the cells where ageing model has been formed. Boric acid has been applied to 2nd and 4th groups for 72 hours and group 1 and group 3 have been cultured in their own culture media at the same durations."}, "[2]": {"tested_on": "osteoblast cells where ageing model is formed by hydroxy-urea", "protocol": "as §1"}, "[3]": {"conditions": "4th group: osteoblast + 1 mM hydroxy-urea + boric acid, 72 hours"}, "[4]": {"conditions": "after applying boric acid, hydroxy-urea ageing model"}}}
{"smiles": "OB(O)O", "note": "[boric acid, Boric acid]", "values": [{"measurement": "cytoplasmic vacuoles", "setting": "[1]; [3]", "result": "begin to occur"}, {"measurement": "epithelioid structure of osteoblast cells", "setting": "[1]; [3]", "result": "preserve their epithelioid structures"}, {"measurement": "intercellular vacuoles", "setting": "[1]; [3]", "result": "decrease"}, {"measurement": "augmentation of osteoblasts and protection of these cells from ageing", "setting": "[1]; boric acid applied to the in-vitro model", "result": "favorable effects"}, {"measurement": "cellular morphology", "setting": "[2]; [4]", "result": "improved"}, {"measurement": "immuno-reactivity of osteocalcin released by osteoblasts", "setting": "[2]; [4]", "result": "increases"}, {"measurement": "immuno-reactivity of osteonectin released by osteoblasts", "setting": "[2]; [4]", "result": "increases"}, {"measurement": "proliferation in cells where ageing model is formed by hydroxy-urea", "setting": "[2]; concluded from Ki-67 immuno-reactivity", "result": "triggers proliferation"}, {"measurement": "immuno-reactivity of Ki-67 (proliferation marker)", "setting": "[2]; osteoblasts where boric acid is applied", "result": "greater"}]}
